Experimental data taken from patent publication US20240197700A1, “Methods and Compositions for Treating Lysosomal Storage Disorders” (Sanford Health, priority 2021, published 2024).
Entries after “also recorded” stand apart in the source; their conditions may differ.

Key:
NCL PNCs = assay: Autofluorescent storage material (ASM) in Batten disease primary neuronal cultures; format: cell-based, mouse
Experimental: Specific experimental details are included in figure legends. […] On DIV7, cells were treated with the following dyes: Hoechst 33342 (1:1000 dilution), LysoTrackerT™ Red DND-99 (1:10,000 dilution), fixed, and imaged. Mice were given vehicle or AF38469 (78.125 μg/ml, 3.125 μg/ml, 0.3125 μg/ml or 0.03125 μg/ml equating approximately to 250 μg/mouse/day, 10 μg/mouse/day, 1 μg/mouse/day, and […], respectively, given a mouse's daily water intake of approximately 3.2 ml per day) in drinking water beginning at wean. Body weight was measured bi-weekly, and a force actimeter test was performed on Cln2^R207X mice at 10 weeks of age. Body weight was measured every month for Cln3^Δex7/8 mice. At 11 and 16 weeks of age, respectively, Cln2^R207X and Cln3^Δex7/8 mice along with age matched wild type control mice were CO2 euthanized and intracardially perfused with PBS. Brains were collected and placed on a 1 mm sagittal brain block. Brains were sliced at the midline and 3 mm right of the midline. One hemisphere was fixed in 4% PFA and sectioned at 50 microns on a vibratome. Immunohistochemistry was performed on free-floating sections. For mitochondrial ATP synthase subunit C (SubC), glial fibrillary acidic protein (GFAP), and cluster of differentiation 68 (CD68) immunolabeling, primary antibodies included anti-SubC (Abcam, ab181243; 1:1000), anti-GFAP (Dako, Z0334; 1:5000), anti-CD68 (AbD Serotec, MCA1957; 1:2000), and secondary antibodies included anti-rabbit biotinylated (Vector Labs, BA-1000 1:1000) and anti-rat (Vector Labs, BA-9400 1:1000). Coverslips were mounted on slides using antifade-mounting media and were stored in the dark before imaging. Sections were imaged and analyzed using an Aperio Digital Pathology Slide Scanner (AT2) and associated software. Images were extracted from S1BF of the somatosensory cortex and the VPM/VPL of the thalamus, with multiple images taken of multiple tissues from each animal.
• An increase in percent area or total area of positive autofluorescent storage material (ASM) signal in untreated NCL MEFs or PNCs relative to age-matched, wild type MEFs or PNCs is considered an increase in the accumulation of autofluorescent storage material, reflecting disease-related lysosomal dysfunction. • A decrease in percent area or total area of positive autofluorescent storage material signal in AF38469 treated MEFs and PNCs relative to age-matched, vehicle treated MEFs and PNCs is considered a reduction in the accumulation of autofluorescent storage material and thus a decrease in disease-related lysosomal dysfunction. • LysoTracker™ is an acidophilic dye that labels lysosomes and accumulation increases with an increase in lysosome size or number. Cell and mouse models of lysosomal storage disorders often have increased accumulation of lysosomes and therefore have a stronger LysoTracker™ signal. […]

[1] = tested on: tripeptidyl peptidase 1 (TPP1); assay: TPP1 enzyme activity in MEF lysates; format: cell-based, mouse
Experimental: Treatment with AF38469 increases PPT1 and TPP1 enzyme activity in Batten disease mouse embryonic fibroblasts. Since AF38469 increases the expression of lysosomal genes including the PPT1 and TPP1 enzymes, we asked whether AF38469 increases the overall activity levels of these enzymes in cellulo. Wild type (WT) and mutant cells were treated with vehicle or AF38469 (40 nM). Cells were plated on day 0 and dosed with drug-containing media on DIV3 and DIV5. Cells were lysed, and protein quantification and enzyme activity assay were performed on DIV7. Data was analyzed with GraphPad Prism™. Two-way ANOVA. Mean±S.E.M. Tukey's multiple comparisons test. *p<0.05, **p<0.01, ***p<0.001, ****p<0.0001. Palmitoyl-protein thioesterase 1 (PPT1) is the lysosomal enzyme mutated in CLN1 disease and removes thioester-linked fatty acyl groups from modified cysteines of substrate proteins. Tripeptidyl peptidase 1 (TPP1) is the lysosomal enzyme mutated in CLN2 disease and has broad substrate specificity against various proteins degraded in the lysosome after cleavage.
Since LM11A-31 stimulates the nuclear translocation of transcription factors responsible for lysosome biogenesis, we asked whether LM11A-31 increases the overall activity levels of lysosomalenzymes in cellulo. […] Wild type (WT) and mutant cells were treated with vehicle or LM11A-31 (100 nM). Cells were plated on day 0 and dosed with drug-containing media on DIV3 and DIV5. Cells were lysed, and protein quantification and enzyme activity assay were performed on DIV7. Data was analyzed with GraphPad Prism™. Two-way ANOVA. Mean±S.E.M. Tukey's multiple comparisons test. *p<0.05, **p<0.01, ***p<0.001, ****p<0.0001. […] Palmitoyl-protein thioesterase 1 (PPT1) is the lysosomal enzyme mutated in CLN1 disease and removes thioester-linked fatty acyl groups from modified cysteines of substrate proteins. Tripeptidyl peptidase 1 (TPP1) is the lysosomal enzyme mutated in CLN2 disease and has broad substrate specificity against various proteins degraded in the lysosome after cleavage. Mutations in the CTSD gene, encoding cathepsin d, a lysosomal protease that is involved in the recycling and degradation, is a known cause of Cln10 disease.
Since semaglutide improves lysosomal health and function across diverse cell models of lysosomal storage disorder, we asked whether the function of the lysosomes was improved. […] Additionally, a combination of semaglutide and AF38469, a sortilin inhibitor, increased overall levels of activity for both enzymes in cell lysates. Wild type (WT) and mutant cells were treated with vehicle or semaglutide (100 nM) or AF38469 (40 nM) and semaglutide (100 nM). Cells were plated on in vitro day 0 and dosed with drug-containing media on DIV3 and DIV5. Cells were lysed, and protein quantification and enzyme activity assay were performed on DIV7. Data was analyzed with GraphPad Prism™. Two-way ANOVA. Mean±S.E.M. Tukey's multiple comparisons test. *p<0.05, **p<0.01, ***p<0.001, ****p<0.0001. […] (FIG. 20A). […] Levels of TPP1 enzyme activity in Cln2^R207X were not altered by treatment of semaglutide, as was expected given the lack of a functional TPP1 protein in this model (FIG. 20B). […] Levels of TPP1 enzyme activity in Cln2^R207X were not altered by treatment of AF38469 and semaglutide, as was expected given the lack of a functional TPP1 protein in this model. n=5 wells per treatment (FIG. 20D).

Compound: semaglutide
- autofluorescent storage material (ASM) signal (NCL PNCs; semaglutide 10 nM, 100 nM, 1 μM, Cln2^R207X and Cln6^nclf PNCs): significantly reduced
- ASM levels (NCL PNCs; semaglutide 10 nM, 100 nM, Cln3^Δex7/8 PNCs): significantly reduced
- ASM levels (NCL PNCs; semaglutide 10 nM, 1 μM, Cln1^R151X PNCs): significantly reduced
- ASM levels (NCL PNCs; semaglutide 10 nM, 1 μM, Cln8^mnd PNCs): significantly reduced
- ASM levels (NCL PNCs; semaglutide 100 nM, Cln1^R151X PNCs): had no impact
- ASM levels (NCL PNCs; semaglutide 100 nM, Cln8^mnd PNCs): significantly elevated
- ASM levels (NCL PNCs; semaglutide 1 μM, Cln3^Δex7/8 PNCs): significantly elevated
- TPP1 enzyme activity ([1]; semaglutide 100 nM, Cln2^R207X MEFs): not altered
- TPP1 enzyme activity ([1]; semaglutide 100 nM, wild type, Cln3^Δex7/8 MEFs, DIV7): significantly increased

Compound: CC[C@H](C)[C@H](N)C(=O)NCCN1CCOCC1 [LM11A-31, N-[2-(morpholin-4-yl)ethyl]-L-isoleucinamide]
- accumulation of autofluorescent storage material (ASM) (NCL PNCs; LM11A-31 100 nM, Cln6^nclf and Cln8^mnd PNCs): significantly reduced
- accumulation of autofluorescent storage material (ASM) (NCL PNCs; LM11A-31 1 μM, Cln1^R151X PNCs): significantly reduced
- accumulation of autofluorescent storage material (ASM) (NCL PNCs; LM11A-31 1 μM, Cln3^Δex7/8 PNCs): significantly reduced
- accumulation of autofluorescent storage material (ASM) (NCL PNCs; LM11A-31 all treatment groups, Cln2^R207X PNCs): significantly reduced
- ASM (NCL PNCs; LM11A-31 varying doses, neurons of all tested NCLs): significantly reduced
- TPP1 enzyme activity ([1]; LM11A-31 100 nM, wild type and Cln3^Δex7/8 MEFs, DIV7): significantly increased

Compound: Cc1cccc(NC(=O)c2ccc(C(F)(F)F)cc2C(=O)O)n1 [AF38469, 2-((6-methylpyridin-2-yl)carbamoyl)-5-(trifluoromethyl)benzoic acid]
- accumulation of autofluorescent storage material (ASM) (NCL PNCs; 40 nM, 400 nM, 4 μM, Cln1^R151X, Cln2^R207X, Cln3^Δex7/8, Cln6^nclf PNCs, DIV7): significantly reduced
- ASM levels (NCL PNCs; Cln8^mnd PNCs, DIV7): significantly increased
- TPP1 enzyme activity ([1]; AF38469 40 nM, Cln2^R207X MEFs): not altered
- TPP1 enzyme activity ([1]; AF38469 40 nM, wild type, Cln3^Δex7/8, Cln6^nclf, Cln11^−/− MEFs, DIV7): increased the overall levels of activity; also recorded: significantly increased
